Our source for the GI50 and TGI values is PubChem BioAssay (NCI).

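Test compounds were applied to cells in 96-well plates for 48 hours at 5 doses. GI50 = concentration required for 50% inhibition of growth. TGI: total growth inhibition.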

The GI50 is the concentration that inhibits growth by half. As a reminder, the TGI is the concentration at which net growth stops.

Experiment in all cases: DTP human tumour cell line panel, 48 h
Test [1] relates to SF-295 CNS.
Test [2] relates to KM12 colon.
Test [3] deals with UACC-257 melanoma.
The test system of test [4] is DU-145 prostate.
In test [5] the test system is MDA-MB-435.
For test [6], the system named is OVCAR-8 ovarian.
The subject of test [7] is SW-620 colon.
The test system of test [8] is NCI-H23 lung.
Test [9] has as its system UACC-62 melanoma.
The test system of test [10] is SF-268 CNS.

As to `COC(=O)c1ccc(CN2C(=O)C(Cl)=C(Nc3ccc(OC)c(Cl)c3)C2=O)cc1`, the GI50 is 20.4 µM in test [1]; 5.42 µM in [2]; 19.4 µM in [3]; 21.8 µM in test [4]; 47.3 µM in test [5]; 23.8 µM in test [6]. In addition, the GI50 was more than 50 µM in test [7], 14.4 µM in test [8], 7.32 µM in [9] and 15.4 µM in test [10]. For the same compound, the total growth inhibition concentration (TGI) in test [1], in test [2], in test [3], in [4], in [5] and in [6] was more than 50 µM in each case. Further, the total growth inhibition concentration (TGI) was more than 50 µM in test [7], 39.3 µM in test [8], 21.1 µM in [9] and more than 50 µM in test [10].
Regarding `COC(=O)[C@H]1[C@H]2C[C@@H]3c4[nH]c5cc(OC)ccc5c4CCN3C[C@H]2C[C@@H](OC(=O)/C=C/c2cc(OC)c(OC)c(OC)c2)[C@@H]1OC`, the GI50 in test [1] is 5.54 µM; in test [2], 4.44 µM; in [3] it was 18.4 µM; in test [4] it was 5.88 µM; in [5], 3.22 µM; in test [6], 4.74 µM. For the same compound, the GI50 in test [7] is 8.47 µM; in [8], 17.6 µM; in test [9] it was 14.5 µM; in test [10], 9.48 µM. In addition, the total growth inhibition concentration (TGI) in test [1] is 24.9 µM; in test [2], 28.5 µM; in [3], 68.1 µM; in [4] it was more than 100 µM; in test [5], 19.4 µM; in test [6] it was 50.4 µM. Besides, the total growth inhibition concentration (TGI) is more than 100 µM in test [7], 53 µM in [8], 33.4 µM in test [9] and more than 100 µM in test [10].
`C[C@]12CC[C@H]3[C@@H](CC[C@]4(O)C[C@@H](O)CC[C@]34CO)[C@@]1(O)CC[C@@H]2C1=CC(=O)OC1`: the total growth inhibition concentration (TGI) in [1] worked out at 5.27 µM; in test [2], 17 µM; in test [3], 12.7 µM; in test [4] it was 2.24 µM; in [5], 9.45 µM; in [6], 3.82 µM. Also, the TGI in test [7] is more than 27 µM; in test [8] it was 4.98 µM; in test [9], 11.4 µM; in test [10] it was 3.25 µM.
On to `COc1cc(/C=C2\CC3C4CC=C5C[C@@H](O)CC[C@]5(C)C4CC[C@]3(C)C2=O)ccc1OCCCn1ccnc1` (stereo not given in full), for which the GI50 in test [1] is 13.4 µM; in test [2], 25.2 µM; in test [3], 15.8 µM; in [4], 15.4 µM; in test [5] it was 16.8 µM; in test [6] it was 17.1 µM. In addition, the GI50 in test [7] is 24.4 µM; in [8], 18.1 µM; in [9], 17.3 µM; in test [10] it was 18.2 µM. Moreover, the TGI in test [1] was 27.5 µM; in test [2] it was 54.8 µM; in test [3], 35.3 µM; in [4] it was 29.6 µM; in test [5] it was 34 µM; in test [6], 47.5 µM. Further, the total growth inhibition concentration (TGI) was 52.9 µM in [7], 32.9 µM in test [8], 35.3 µM in [9] and 40.2 µM in test [10].
As for `CN(C)CCCc1c2ccccc2nc2ccc(Cl)cc12`, the TGI in [1] worked out at 30.9 µM; in test [2] it was 32.5 µM; in test [3], 26.4 µM; in test [4], 58.7 µM; in test [5], 26.6 µM; in test [6] it was 32.6 µM. Moreover, the concentration for total growth inhibition (TGI) is 98.4 µM in [7], 84.8 µM in [8], 34.2 µM in test [9] and 33.3 µM in [10].
For `CCOC(=O)Nc1nc2cc(OCC)ccc2s1`, the GI50 in test [1] is more than 100 µM; in test [2], 3.86 µM; in test [3], more than 100 µM; in [4], more than 100 µM; in test [5] it was 0.923 µM; in test [6], more than 76.1 µM. Further, the GI50 was 4.74 µM in test [7], more than 100 µM in [8], 58.3 µM in test [9] and more than 79.7 µM in test [10]. The TGI in test [1] is more than 100 µM; in test [2] it was more than 100 µM; in [3], more than 100 µM; in test [4] it was more than 100 µM; in test [5] it was 5.15 µM; in test [6], more than 100 µM. The TGI in test [7], in [8], in test [9] and in test [10] was more than 100 µM throughout.
Regarding `Cn1cc(C2=C(c3cn(C)c4cc(N)ccc34)C(=O)NC2=O)c2ccccc21`, the GI50 in test [1] was 0.909 µM; in [2] it was 1.45 µM; in test [3] it was 5.89 µM; in test [4], 1.84 µM; in test [5], 0.112 µM; in test [6] it was 4.18 µM. For the same compound, the GI50 in test [7] is 1.5 µM; in test [8], 3.72 µM; in [9], 3.44 µM; in test [10], 3.67 µM. Also, the TGI in test [1] is more than 25 µM; in test [2] it was 11.8 µM; in test [3] it was 18.1 µM; in [4], 16.8 µM; in test [5], more than 21.2 µM; in test [6] it was more than 25 µM. Moreover, the TGI is more than 25 µM in test [7], 11.8 µM in test [8], 8.39 µM in test [9] and 13.7 µM in test [10].
Consider `Nc1nc(N)nc(CC(=O)O)n1`, for which the TGI in [1], in [2], in test [3], in [4], in test [5] and in test [6] was more than 100 µM throughout. In addition, the concentration for total growth inhibition (TGI) in test [7], in test [8], in test [9] and in test [10] was more than 100 µM throughout.
